{"source": "patent US20100298166A1", "about": "“CELL POPULATIONS FOR POLYPEPTIDE ANALYSIS AND USES OF SAME” (priority 2008, published 2010)", "assay_type_in_all_cases": "cell-based, human", "key": {"TOP1 [1]": {"system": "TOP1", "settings": "for effects on TOP1 (nucleolar exit, degradation, cytoplasmic accumulation): other DNA damaging drugs", "procedure": "(§1) Long period time-lapse microscopy: Time-lapse movies were obtained (at 20× magnification) as described by Sigal et al. (Sigal, Milo et al. 2006, supra) with an automated, incubated (including humidity and CO2 control) Leica DMIRE2 inverted fluorescence microscope and an ORCA ER cooled CCD camera (Hamamatsu Photonics). The system was controlled by ImagePro5 Plus (Media Cybernetics) software which integrated time-lapse acquisition, stage movement, and software based auto-focus. During the experiment, cells were grown and visualized in 12-well coverslip bottom plates (MatTek) coated with […] fibronectin (Sigma). For each well time lapse movies were obtained at four fields of view. Each movie was taken at a time resolution of 20 minutes and was filmed for at least three days (over 200 time points). Each time point included three images—phase contrast, red and yellow fluorescence.\n(§2) Drug Materials: Camptothecin (CPT; C9911 Sigma), was dissolved in DMSO (hybri-max, D2650 Sigma) to achieve a stock solution of 10 mM. In each experiment, drug was diluted to 10 μM in a transparent growth medium (RPMI, X PenStrep, 10% FCS, w/o riboflavin, w/o phenol red, Bet Haemek). Growth medium (2 ml) was replaced by the diluted drug (2 ml) under the microscope. The same procedure was carried out for the following drugs: Etoposide (E1383 Sigma), diluted to 33.3 μM and for Cisplatinum (P4394 Sigma) diluted to 40 μM. The stock solution for ActD (A1410 Sigma) was 1 mg/ml and was diluted to 1 μg/ml.\nImage analysis of time lapse movies: A custom written image analysis tool was used developed using the Matlab image processing toolbox environment (Mathworks, Natick, Mass.). The main steps include; image correction, segmentation, tracking of the cells and automated identification of cell phenotypes (mitosis and cell death). Image background correction (flat field correction and background subtraction) was carried out as previously described (Sigal, Milo et al. 2006, supra). […] The main steps of the segmentation process are: 1) Differentiation between cells and background by global image threshold using Otsu's method (Otsu 1979, IEEE Transactions on Systems, Man, and Cybernetics 9(1): 62-66); 2) Segmentation of neighboring cells by applying the seeded watershed segmentation algorithm. Seeds were obtained by smoothening the red intensity image and usage of bright nuclei as cell seeds (by identifying local maxima)—one seed per cell; 3) Nuclei segmentation following cell segmentation; each cell was independently stretched between zero and one and a fixed threshold was used to differentiate between the cytoplasm and the nuclei; 4) Tracking of cells was performed by analyzing the movie from end to start and linking each segmented cell to the cell in the previous image with the closest centroid; 5) The automated cell death identification algorithm utilizes the morphological changes correlated with dying cells: rounding followed by blebbing and an explosion of the outer membrane or its collapse. An artificial neural network (ANN) algorithm was constructed that could identify each one of these morphological patters similar to the method previously described in (Eden 2005, IEEE, Transactions on Medical Imaging 24: 1011-1024). Briefly, two sets of images were constructed: The first contained 400 cell images in different stages of cell death and the second contained 400 live cell images. For each image, a collection of high-level image features was computed. […] This process transforms each image into a multi dimensional vector of features."}, "TOP1 [2]": {"system": "TOP1", "assay": "Immunoblots with anti-TOP1 and anti-GFP after CPT", "procedure": "Immunoblots against 20 selected proteins: Total cell lysates were prepared with RIPA buffer (Pierce) according to manufacturer's instructions. The protein concentrations were determined by BCA protein assay kit (Thermo scientific). Equal amounts of proteins were resolved on SDS-PAGE and subjected to immunoblotting analysis by using the antibodies listed below. The intensity of protein bands was quantified by using ImageJ software.\nAnti-Myosin IIA (M8064) and anti-GFP (11814460001) antibodies were from Sigma and Roche, respectively."}, "[3]": {"system": "YFP tagged proteins in H1299 cells", "assay": "Temporal profiles of total fluorescence and cell-cell variability of YFP tagged proteins in response to drug", "procedure": "as §1\nImage analysis of time lapse movies: A custom written image analysis tool was used developed using the Matlab image processing toolbox environment (Mathworks, Natick, Mass.). The main steps include; image correction, segmentation, tracking of the cells and automated identification of cell phenotypes (mitosis and cell death). Image background correction (flat field correction and background subtraction) was carried out as previously described (Sigal, Milo et al. 2006, supra). No significant bleaching was observed (on average less than 3% over the duration of the experiment). […] The main steps of the segmentation process are: 1) Differentiation between cells and background by global image threshold using Otsu's method (Otsu 1979, IEEE Transactions on Systems, Man, and Cybernetics 9(1): 62-66); 2) Segmentation of neighboring cells by applying the seeded watershed segmentation algorithm. […]\nProtein dynamics clustering: The five average population dynamics profiles depicted in FIG. 8B were generated in the following manner: The levels of each protein were smoothed using a median filter and linearly scaled between −1 and 1. The distance between every pair of proteins was measured in terms of Pearson correlation and clustering was performed using a k-means algorithm (reproducibility of results using different seeds is >99%). […]"}, "[4]": {"system": "thyredoxin and thyredoxin reductase", "assay": "Nuclear/cytoplasmic localization changes of tagged proteins following drug addition", "procedure": "as §1\nImage analysis of time lapse movies: A custom written image analysis tool was used developed using the Matlab image processing toolbox environment (Mathworks, Natick, Mass.). […]\nNuclear localization changes following drug addition: The localization of each protein across the experiment was analyzed and the ratio of cytoplasmic to nuclear fluorescence was followed as a function of time. […] Both rapid and slow localization changes between the cytoplasm and the nucleus were detected (FIGS. 14A-C)."}, "[5]": {"system": "H1299 non-small cell lung carcinoma cell line", "assay": "Time-lapse microscopy of cell death, motility and growth arrest after drug addition", "settings": "CPT 10 uM", "procedure": "as §1\nDrug Materials: Camptothecin (CPT; C9911 Sigma), was dissolved in DMSO (hybri-max, D2650 Sigma) to achieve a stock solution of 10 mM. In each experiment, drug was diluted to 10 μM in a transparent growth medium (RPMI, X PenStrep, 10% FCS, w/o riboflavin, w/o phenol red, Bet Haemek). Growth medium (2 ml) was replaced by the diluted drug (2 ml) under the microscope. […]"}, "nucleolar proteins": {"system": "nucleolar proteins", "assay": "Quantitation of nucleolar translocations of tagged proteins", "settings": "1 μg/ml", "procedure": "as §2\nThen, for each of the selected clones, the present inventors calculated the ratio of fluorescence intensity between the top and bottom ten percent pixels in individual nuclei and averaged over the population. Clones with a max/min change of over 20 percent in this average during the experiment were inspected manually to verify the source of change in pixel intensity distribution and were classified as clones showing nucleolar translocation.\nFinally, to quantify the extent and direction (nucleoli to nucleoplasm or vise versa) of the translocation, the present inventors calculated the ratio between mean fluorescence intensity of nucleoli vs. nucleoplasm (Rncll/nuc) at the two time points were the max/min ratio was maximized and minimized. […]"}, "DDX5": {"system": "DDX5", "assay": "Bimodal behavior of tagged DDX5 in individual cells in response to drugs", "settings": "Etoposide 33.3 μM, Cis-platinum 40 μM", "procedure": "as §2\nDetermination of ‘bimodal’ behaviors: The coefficient of variance (CV defined as the ration between the std between cells and the mean) was measured for 400 proteins for 47 hours following addition of CPT (at a 20 minute resolution) (see FIGS. 13A-B). All CVs were normalized to average 1 (CV(i,j)/mean(mean(CV)) where i is protein number (i=1 . . . 400) and j is timepoint (j=1 . . . 141)). All proteins deviating 3 standard deviations from the average normalized CV were considered as ‘bimodal’ candidates (N=59). Following manual inspection, 30 of these proteins listed in Table 4 were denoted as bimodal."}}, "note": "Like-named read-outs stand apart in the source and are kept apart here. Numbered stars: 1 amine (or outer) side, 2 acyl side, 3 side chain; on linkers, the order of the positions; unused ones are H or OH. Bridge positions count the residues as written; N and C are the ends. Square brackets hold non-standard residues; d marks the D form. Peptide text beside a SMILES is read from it. I, II: the chains in the order shown. Actinocin(9to1) = Cc1c2oc3c(C)ccc(C(=O)[*:1])c3nc-2c(C(=O)[*:2])c(N)c1=O; NMeV = CN[C@H](C(=O)O)C(C)C; Sar = CNCC(=O)O"}
{"smiles": "CC[C@@]1(O)C(=O)OCc2c1cc1n(c2=O)Cc2cc3ccccc3nc2-1", "note": "[CPT, Camptothecin]", "values": [{"measurement": "timescale of decrease of total cellular fluorescence of tagged TOP1", "setting": "TOP1 [1]; CPT", "value": "under an hour"}, {"measurement": "nuclear exit of tagged TOP1", "setting": "TOP1 [1]; etoposide at equivalently lethal dose, CPT at several doses", "value": "exits from the nucleus to the cytoplasm in a CPT dose dependent manner"}, {"measurement": "timescale of fluorescence accumulation in the cytoplasm in the TOP1 tagged clone", "setting": "TOP1 [1]; following CPT addition", "value": "~5", "unit": "h"}, {"measurement": "time for TOP1 levels in the nucleoli to drop after drug addition", "setting": "TOP1 [1]; tagged TOP1, individual cells", "value": "less than 2 minutes"}, {"measurement": "time within which most TOP1 is degraded", "setting": "TOP1 [2]", "value": "≤ 4", "unit": "h"}, {"measurement": "largest changes in fluorescence", "setting": "[3]; CPT 10 uM", "value": "about five"}, {"measurement": "median dynamic range of response, change in fluorescence", "setting": "[3]; CPT 10 uM", "value": 1.3, "unit": "fold"}, {"measurement": "proteins showing a decrease in intensity in response to the drug", "setting": "[3]; CPT 10 uM, 48 hours tracking", "value": "about 70%"}, {"measurement": "increase of cell-cell variability (noise) following drug addition, on average", "setting": "[3]; std between cells divided by mean", "value": 30, "unit": "%"}, {"measurement": "time to increase in nuclear/cytoplasmic ratio of thyredoxin and thyredoxin reductase", "setting": "[4]; after drug addition", "value": "≤ 8", "unit": "h"}, {"measurement": "proteins showing significant change in nuclear localization (>20% change in cytoplasm/nuclear fluorescence ratio)", "setting": "[4]; all tagged proteins, after CPT addition", "value": "about 1%"}, {"measurement": "time to loss of motility and growth arrest after drug addition", "setting": "[5]", "value": "about 10 hours"}, {"measurement": "cells showing cell rounding and blebbing (morphological correlates of cell death)", "setting": "[5]; after 36 hours", "value": "about 15%"}]}
{"smiles": "Cc1c2oc3c(C)ccc(C(=O)N[C@@H]4C(=O)N[C@H](C(C)C)C(=O)N5CCC[C@H]5C(=O)N(C)CC(=O)N(C)[C@@H](C(C)C)C(=O)O[C@@H]4C)c3nc-2c(C(=O)N[C@@H]2C(=O)N[C@H](C(C)C)C(=O)N3CCC[C@H]3C(=O)N(C)CC(=O)N(C)[C@@H](C(C)C)C(=O)O[C@@H]2C)c(N)c1=O", "note": "[actinomycinD, actinomycin-D] (I: T[dV]P[Sar][NMeV] / II: T[dV]P[Sar][NMeV]; ester I:1-I:C, II:1-II:C; linker I:N-II:N via Actinocin(9to1))", "values": [{"measurement": "proteins with nucleolar dynamics similar to those seen with CPT", "setting": "nucleolar proteins", "value": "4 out of 5"}]}
{"smiles": "N.N.[Cl][Pt][Cl]", "note": "[cisplatin, Cisplatinum]", "values": [{"measurement": "effects on TOP1 (nucleolar exit, degradation, cytoplasmic accumulation)", "setting": "TOP1 [1]", "value": "did not show any of these effects on TOP1"}, {"measurement": "bimodal behavior of tagged DDX5", "setting": "DDX5", "value": "did not show bimodal behavior"}]}
{"smiles": "COc1cc([C@@H]2c3cc4c(cc3[C@@H](O[C@@H]3O[C@@H]5CO[C@@H](C)O[C@H]5[C@H](O)[C@H]3O)[C@H]3COC(=O)[C@H]23)OCO4)cc(OC)c1O", "note": "[etoposide, Etoposide]", "values": [{"measurement": "nuclear exit of tagged TOP1", "setting": "TOP1 [1]", "value": "does not occur"}, {"measurement": "effects on TOP1 (nucleolar exit, degradation, cytoplasmic accumulation)", "setting": "TOP1 [1]", "value": "did not show any of these effects on TOP1"}, {"measurement": "bimodal behavior of tagged DDX5", "setting": "DDX5", "value": "did not show bimodal behavior"}]}
